Measured values as given in publication PMC11589570, “Critical assessment of LC3/GABARAP ligands used for degrader development and ligandability of LC3/GABARAP binding pockets” (Nature Communications, 2024).
Several values for one entry are separate records, joined by “and”; a condition that tells them apart may be missing. Equal entries are not always repeated.

Legend:
[1] = molecular target: GABARAPL1 (Homo sapiens, UniProt Q9H0R8); test: FP assay with Cy5-labelled p62 LIR tracer (protein titration and tracer displacement); type: binding; settings: for compound titration GABARAPL1 (displacement curve, FP signal): two replicate columns per compound; for FP tracer displacement curve signal (compound titration): duplicate values
[2] = system: U2OS cells; test: Cell growth assay (IncuCyte confluence over 72 h); type: cell-based; set-up: key to U2OS cell growth: % of well area covered by cells (confluence)
Procedure, shortened: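 U2OS cells were grown in DMEM with 10% FBS for 24 h before treatment. Confluence was then tracked by IncuCyte phase imaging over 72 h and expressed as % of well area covered by cells. Each point is the average of three wells.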

[3] = molecular target: GABARAPL2 (Homo sapiens, UniProt P60520); test: FP assay with Cy5-labelled p62 LIR tracer (protein titration and tracer displacement); settings: for normalized FP signal, p62 LIR tracer displacement: GABARAPL2
[4] = log10 concentration [M] -3.82391
[5] = log10 concentration [M] -4.1549
[6] = log10 concentration [M] -4.60206
[7] = log10 concentration [M] -5.69897
[8] = log10 concentration [M] -6.22185
[9] = log10 concentration [M] -6.69897
[10] = log10 concentration [M] -7.30103
[11] = log10 concentration [M] -7.79588
[12] = log10 concentration [M] -8.08092

Chain of GABARAPL2 (P60520 whole entry): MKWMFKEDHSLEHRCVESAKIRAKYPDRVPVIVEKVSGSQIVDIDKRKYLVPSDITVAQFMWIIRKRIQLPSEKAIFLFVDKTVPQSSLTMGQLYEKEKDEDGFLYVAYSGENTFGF
Chain of GABARAPL1 (Q9H0R8 whole entry): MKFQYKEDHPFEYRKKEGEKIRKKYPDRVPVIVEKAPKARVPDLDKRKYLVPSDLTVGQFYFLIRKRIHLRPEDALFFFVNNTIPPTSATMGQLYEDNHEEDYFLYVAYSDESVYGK

With CO[C@@H]1[C@@H](OC(N)=O)[C@@H](O)[C@H](Oc2ccc3c(O)c(NC(=O)c4ccc(O)c(CC=C(C)C)c4)c(=O)oc3c2C)OC1(C)C [compound 12, Novobiocin] the “normalized FP signal, p62 LIR tracer displacement” value (“normalized FP signal” for short) ([1]; GABARAPL1, log10 concentration [M] -8.08092) was 93.8571 and 98.4286, the “compound titration GABARAPL1 (displacement curve, FP signal)” value (“compound titration GABARAPL1” for short) [1, 4] was 56.4286 and 54 and the “compound titration GABARAPL1” value [1, 5] was 66.8571 and 68.4286. The “compound titration GABARAPL1” value [1, 6] was 83.8571 and 84.7143, the “compound titration GABARAPL1” value ([1]; log10 concentration [M] -5) was 91.2857 and 89.4286 and the “FP tracer displacement curve signal (compound titration)” value (“FP tracer displacement curve signal” below) [1, 7] was 90 and 96. The “FP tracer displacement curve signal” value [1, 8] was 93.7143 and 95.7143, the “FP tracer displacement curve signal” value [1, 9] was 100.143 and 97.8571 and the “FP tracer displacement curve signal” value [1, 10] was 98.4286 and 98.8571. For the same compound, the “FP tracer displacement curve signal” value [1, 11] was 94.4286 and 92.2857, the “FP tracer displacement curve signal” value [1, 12] was 93.8571 and 98.4286 and the U2OS cell growth ([2]; 100 nM, time 10 h) was 31.1029 and 33.4179 and 23.7087. The U2OS cell growth ([2]; 100 nM, time 0 h) was 19.136 and 22.8325 and 13.4185, the U2OS cell growth ([2]; 100 nM, time 2 h) was 26.0593 and 27.2796 and 22.6674 and the U2OS cell growth ([2]; 100 nM, time 4 h) was 30.3299 and 25.4304 and 21.2335. The U2OS cell growth ([2]; 100 nM, time 6 h) was 27.5347 and 27.1928 and 26.8694, the U2OS cell growth ([2]; 100 nM, time 8 h) was 31.7442 and 25.9761 and 21.578 and the U2OS cell growth ([2]; 500 nM, time 0 h) was 26.2226 and 29.6942 and 26.7407. The U2OS cell growth ([2]; 500 nM, time 2 h) was 28.1697 and 29.3576 and 35.4881, the U2OS cell growth ([2]; 500 nM, time 4 h) was 24.6559 and 29.8656 and 34.6982 and the U2OS cell growth ([2]; 500 nM, time 6 h) was 27.3788 and 36.5331 and 38.1104. For the same compound, the U2OS cell growth ([2]; 1 uM, time 12 h) was 42.1826, the U2OS cell growth ([2]; 1 uM, time 0 h) was 33.676 and 37.1441 and 40.8786 and the U2OS cell growth ([2]; 1 uM, time 2 h) was 36.3349 and 37.5509 and 45.2384. The U2OS cell growth ([2]; 1 uM, time 4 h) was 33.5211 and 30.275 and 38.1541, the U2OS cell growth ([2]; 1 uM, time 6 h) was 37.9722 and 40.3217 and 48.2479 and the U2OS cell growth ([2]; 3 uM, time 10 h) was 50.7454 and 57.0193 and 59.2136. For the same compound, the U2OS cell growth ([2]; 3 uM, time 12 h) was 41.453 and 34.0715 and 58.5093, the U2OS cell growth ([2]; 3 uM, time 0 h) was 41.5291 and 47.819 and 45.1855 and the U2OS cell growth ([2]; 3 uM, time 2 h) was 44.8462 and 48.6747 and 48.1364. For the same compound, the U2OS cell growth ([2]; 3 uM, time 4 h) was 43.175 and 44.1535 and 45.8798, the U2OS cell growth ([2]; 3 uM, time 6 h) was 48.3538 and 51.3151 and 53.1755 and the U2OS cell growth ([2]; 3 uM, time 8 h) was 48.5002 and 53.1189 and 54.8109. For the same compound, the U2OS cell growth ([2]; 5 uM, time 10 h) was 57.6709 and 52.4954 and 56.7999, the U2OS cell growth ([2]; 5 uM, time 0 h) was 41.1202 and 38.7556 and 46.8996 and the U2OS cell growth ([2]; 5 uM, time 2 h) was 48.6568 and 43.7565 and 48.1243. The U2OS cell growth ([2]; 5 uM, time 4 h) was 49.6825 and 47.505 and 46.9675, the U2OS cell growth ([2]; 5 uM, time 6 h) was 52.2007 and 50.4885 and 57.3887 and the U2OS cell growth ([2]; 5 uM, time 8 h) was 51.5745 and 47.2991 and 53.416. The U2OS cell growth ([2]; 10 uM, time 10 h) was 46.9907 and 34.892 and 44.8825, the U2OS cell growth ([2]; 10 uM, time 0 h) was 34.3842 and 28.0059 and 32.3826 and the U2OS cell growth ([2]; 10 uM, time 2 h) was 40.1489 and 30.903 and 35.6928. For the same compound, the U2OS cell growth ([2]; 10 uM, time 4 h) was 42.2655 and 32.6525 and 40.3474, the U2OS cell growth ([2]; 10 uM, time 6 h) was 45.1844 and 33.7835 and 42.5534 and the U2OS cell growth ([2]; 10 uM, time 8 h) was 38.9614 and 32.8145 and 39.1419. The Ki [3] was 681 µM, the “normalized FP signal” value [3, 4] was 88.8 and 79.6 and the “normalized FP signal” value [3, 5] was 90.4 and 93.6. For the same compound, the “normalized FP signal” value [3, 6] was 94.8 and 107.2, the “normalized FP signal” value ([3]; log10 concentration [M] -5) was 97.2 and 105.2 and the “normalized FP signal” value ([3]; log10 concentration [M] -5.30103) was 95.6 and 104.8. For the same compound, the “normalized FP signal” value [3, 7] was 86.4 and 89.6, the “normalized FP signal” value [3, 8] was 100.4 and 99.2 and the “normalized FP signal” value [3, 9] was 102 and 95.6. The “normalized FP signal” value [3, 10] was 100.8 and 96.8, the “normalized FP signal” value [3, 11] was 100 and 94.8 and the “normalized FP signal” value [3, 12] was 102.4 and 106.8.
